According to BindingDB's records for doi:10.1002/cbic.201500668 (University of Siena, 2016):

What was measured:
Gag-Pol polyprotein [1] = target: T1, Gag-Pol polyprotein (Human immunodeficiency virus type 1 group M subtype B (isolate NY5), UniProt P12497); assay: RNA-dependent DNA Polymerase (RDDP) Assay; settings: pH 8.1; 37 °C
Description: RNA-dependent DNA polymerase (RDDP) activity was measured as described[J. Microbiol. […] After enzyme addition, the reaction mixture was incubated for 30 min at 37 °C, then the reaction was stopped by addition of EDTA.

Gag-Pol polyprotein [2] = target: T1, Gag-Pol polyprotein; assay: RNase H (RH) Assay; settings: pH 7.8; 37 °C
Description: HIV RT-associated RNase H activity was measured as previously described.[J. Med. Chem. 2014, 57:3223-3234] Briefly, the reaction mixture comprised Tris HCl ([…], 50 mm, pH 7.8) containingMgCl2 (6 mm), dithiothreitol (1 mm), KCl (80 mm), hybrid RNA/DNA 5'-GAUCU GAGCC UGGGA GCU-Fluorescin-3' (0.25 mm; HPLC, dry, QC: Mass Check; Metabion, Steinkirchen, Germany), 5'-Dabcyl-AGCTC CCAGG CTCAG ATC-3' (HPLC, dry, QC: Mass Check), and HIV-1 RT (20 ng, according to a linear range of dose-activity curve). The reaction mixture was incubated for 1 h at 37 °C, and the reaction was stopped by addition of EDTA; products were measured with a Victor 3 multilabel counter plate reader (model 1420-051; PerkinElmer) equipped with filters (lex=490 nm, lem=528 nm).

Compound	IC50 (Gag-Pol polyprotein [1])	IC50 (Gag-Pol polyprotein [2])
Cn1c(=O)c2c(nc3n2CC(O)CN3c2ccc(O)cc2)n(C)c1=O (stereo unspecified) [MAS0 (1)]	> 100 µM	100 µM
CCOC(=O)C(=O)CC(=O)/C=C/c1cccn1Cc1ccccc1Cl [RDS1759]		7.5 µM
CCc1ccc(N2CC(O)Cn3c2nc2c3c(=O)n(C)c(=O)n2C)cc1 (stereo unspecified) [STOCK2S-18057 (3)]	> 100 µM	
CCCCCn1c(=O)c2c(nc3n2CC(C)CN3c2ccc(OC)cc2)n(C)c1=O (stereo unspecified) [STOCK4S-37006 (4)]	100 µM	97 µM
CCOc1ccc(N2CC(O)Cn3c2nc2c3c(=O)n(CC(=O)OCc3ccccc3)c(=O)n2C)cc1 (stereo unspecified) [STOCK4S-60534 (6)]	28.5 µM	33 µM
CCCCCn1c(=O)c2c(nc3n2CCCN3c2ccc(Oc3ccccc3)cc2)n(C)c1=O [STOCK5S-18255 (2)]	69 µM	25 µM
CCOc1ccc(N2CC(O)Cn3c2nc2c3c(=O)n(CC(N)=O)c(=O)n2C)cc1 (stereo unspecified) [STOCK5S-55040 (5)]	> 100 µM	
